Test results taken from ChEMBL document CHEMBL1155876 (J Med Chem, 2008).

How the values were obtained:
[1] = molecular target: MAP kinase-activated protein kinase 2 (Homo sapiens) (UniProt P49137); assay: Inhibition of human MAPKAP-K2 kinase assessed as residual enzyme activity at 0.1 uM
HCT-116 [2] = assay: Antitumor activity in human HCT116 cells xenografted athymic mouse assessed as growth inhibition at 1 mg/kg, po qd; type: functional; conditions: read-out: TGI
[3] = molecular target: CDK6/cyclin D3 (Homo sapiens) (UniProt P30281+Q00534); assay: Inhibition of CDK6/CyclinD3 assessed as residual enzyme activity at 1 uM; type: protein-complex assay
[4] = Inhibition of CDK9/CyclinT1 assessed as residual enzyme activity at 1 uM
[5] = molecular target: Serine/threonine-protein kinase PLK3 (Homo sapiens) (UniProt Q9H4B4); assay: Inhibition of Plk3 at assessed as residual enzyme activity at 1 uM
[6] = molecular target: Tyrosine-protein kinase ABL1 (Homo sapiens) (UniProt P00519); assay: Inhibition of Abl at assessed as residual enzyme activity at 1 uM
[7] = molecular target: BDNF/NT-3 growth factors receptor (Homo sapiens) (UniProt Q16620); assay: Inhibition of TrkB assessed as residual enzyme activity at 1 uM
HCT-116 [8] = assay: Antitumor activity in human HCT116 cells xenografted athymic mouse assessed as growth inhibition at 2.5 mg/kg, po qd; type: functional; conditions: read-out: TGI
[9] = molecular target: ALK tyrosine kinase receptor (Homo sapiens) (UniProt Q9UM73); assay: Inhibition of human ALK assessed as residual enzyme activity at 0.1 uM
Rattus norvegicus = organism: Rattus norvegicus; assay: Inhibition of rat AMPK assessed as residual enzyme activity at 0.1 uM
[10] = molecular target: NUAK family SNF1-like kinase 1 (Homo sapiens) (UniProt O60285); assay: Inhibition of human ARK5 kinase assessed as residual enzyme activity at 0.1 uM
[11] = molecular target: Tyrosine-protein kinase receptor UFO (Homo sapiens) (UniProt P30530); assay: Inhibition of human Axl kinase assessed as residual enzyme activity at 0.1 uM
[12] = molecular target: Tyrosine-protein kinase BTK (Homo sapiens) (UniProt Q06187); assay: Inhibition of human BTK kinase assessed as residual enzyme activity at 0.1 uM
Homo sapiens [13] = organism: Homo sapiens; assay: Inhibition of human CDK5/p25 kinase assessed as residual enzyme activity at 0.1 uM
[14] = molecular target: Casein kinase II subunit alpha (Homo sapiens) (UniProt P68400); assay: Inhibition of human CK2 kinase assessed as residual enzyme activity at 0.1 uM
[15] = molecular target: Mast/stem cell growth factor receptor Kit (Homo sapiens) (UniProt P10721); assay: Inhibition of human cKit assessed as residual enzyme activity at 0.1 uM
[16] = molecular target: RAF proto-oncogene serine/threonine-protein kinase (Homo sapiens) (UniProt P04049); assay: Inhibition of human c-RAF assessed as residual enzyme activity at 0.1 uM
[17] = molecular target: Discoidin domain-containing receptor 2 (Homo sapiens) (UniProt Q16832); assay: Inhibition of human DDR2 kinase assessed as residual enzyme activity at 0.1 uM
[18] = molecular target: Ephrin type-A receptor 1 (Homo sapiens) (UniProt P21709); assay: Inhibition of human EphA1 kinase assessed as residual enzyme activity at 0.1 uM
[19] = molecular target: Ephrin type-B receptor 4 (Homo sapiens) (UniProt P54760); assay: Inhibition of human EphB4 kinase assessed as residual enzyme activity at 0.1 uM
[20] = molecular target: Inhibitor of nuclear factor kappa-B kinase subunit beta (Homo sapiens) (UniProt O14920); assay: Inhibition of human IKK-beta kinase assessed as residual enzyme activity at 0.1 uM
[21] = molecular target: Interleukin-1 receptor-associated kinase 1 (Homo sapiens) (UniProt P51617); assay: Inhibition of human IRAK1 kinase assessed as residual enzyme activity at 0.1 uM
[22] = molecular target: Mitogen-activated protein kinase 8 (Homo sapiens) (UniProt P45983); assay: Inhibition of human JNK1alpha1 assessed as residual enzyme activity at 0.1 uM
[23] = molecular target: Tyrosine-protein kinase Lyn (Homo sapiens) (UniProt P07948); assay: Inhibition of human Lyn kinase assessed as residual enzyme activity at 0.1 uM
[24] = molecular target: Maternal embryonic leucine zipper kinase (Homo sapiens) (UniProt Q14680); assay: Inhibition of human MELK assessed as residual enzyme activity at 0.1 uM
[25] = molecular target: Dual specificity mitogen-activated protein kinase kinase 6 (Homo sapiens) (UniProt P52564); assay: Inhibition of human MKK6 assessed as residual enzyme activity at 0.1 uM
[26] = molecular target: Ribosomal protein S6 kinase alpha-5 (Homo sapiens) (UniProt O75582); assay: Inhibition of human MSK1 kinase assessed as residual enzyme activity at 0.1 uM
[27] = molecular target: Serine/threonine-protein kinase MARK2 (Homo sapiens) (UniProt Q7KZI7); assay: Inhibition of human PAR-1Balpha kinase assessed as residual enzyme activity at 0.1 uM
[28] = molecular target: Platelet-derived growth factor receptor alpha (Homo sapiens) (UniProt P16234); assay: Inhibition of human PDGFRalpha assessed as residual enzyme activity at 0.1 uM
[29] = molecular target: Platelet-derived growth factor receptor beta (Homo sapiens) (UniProt P09619); assay: Inhibition of human PDGFRbeta kinase assessed as residual enzyme activity at 0.1 uM
[30] = molecular target: Protein kinase C alpha type (Homo sapiens) (UniProt P17252); assay: Inhibition of human PKCalpha assessed as residual enzyme activity at 0.1 uM
[31] = molecular target: Protein kinase C gamma type (Homo sapiens) (UniProt P05129); assay: Inhibition of human PKCgamma kinase assessed as residual enzyme activity at 0.1 uM
[32] = molecular target: Protein kinase C theta type (Homo sapiens) (UniProt Q04759); assay: Inhibition of human PKCtheta kinase assessed as residual enzyme activity at 0.1 uM
Homo sapiens [33] = organism: Homo sapiens; assay: Inhibition of human PKG1alpha kinase assessed as residual enzyme activity at 0.1 uM
[34] = molecular target: Proto-oncogene tyrosine-protein kinase receptor Ret (Homo sapiens) (UniProt P07949); assay: Inhibition of human Ret kinase assessed as residual enzyme activity at 0.1 uM
[35] = molecular target: Ribosomal protein S6 kinase alpha-1 (Homo sapiens, UniProt Q15418); assay: Inhibition of human Rsk1 kinase assessed as residual enzyme activity at 0.1 uM
[36] = molecular target: Serine/threonine-protein kinase Sgk1 (Homo sapiens) (UniProt O00141); assay: Inhibition of human SGK assessed as residual enzyme activity at 0.1 uM
[37] = molecular target: SRSF protein kinase 1 (Homo sapiens) (UniProt Q96SB4); assay: Inhibition of human SRPK1 kinase assessed as residual enzyme activity at 0.1 uM
[38] = molecular target: Angiopoietin-1 receptor (Homo sapiens) (UniProt Q02763); assay: Inhibition of human Tie2 kinase assessed as residual enzyme activity at 0.1 uM
[39] = molecular target: BDNF/NT-3 growth factors receptor (Homo sapiens) (UniProt Q16620); assay: Inhibition of human TrkB kinase assessed as residual enzyme activity at 0.1 uM
[40] = molecular target: Serine/threonine-protein kinase 4 (MST1/STK4) (Homo sapiens) (UniProt Q13043); assay: Inhibition of human MST1 kinase assessed as residual enzyme activity at 0.1 uM

Chain of BDNF/NT-3 growth factors receptor (Homo sapiens) (Q16620 32-822 limits assumed): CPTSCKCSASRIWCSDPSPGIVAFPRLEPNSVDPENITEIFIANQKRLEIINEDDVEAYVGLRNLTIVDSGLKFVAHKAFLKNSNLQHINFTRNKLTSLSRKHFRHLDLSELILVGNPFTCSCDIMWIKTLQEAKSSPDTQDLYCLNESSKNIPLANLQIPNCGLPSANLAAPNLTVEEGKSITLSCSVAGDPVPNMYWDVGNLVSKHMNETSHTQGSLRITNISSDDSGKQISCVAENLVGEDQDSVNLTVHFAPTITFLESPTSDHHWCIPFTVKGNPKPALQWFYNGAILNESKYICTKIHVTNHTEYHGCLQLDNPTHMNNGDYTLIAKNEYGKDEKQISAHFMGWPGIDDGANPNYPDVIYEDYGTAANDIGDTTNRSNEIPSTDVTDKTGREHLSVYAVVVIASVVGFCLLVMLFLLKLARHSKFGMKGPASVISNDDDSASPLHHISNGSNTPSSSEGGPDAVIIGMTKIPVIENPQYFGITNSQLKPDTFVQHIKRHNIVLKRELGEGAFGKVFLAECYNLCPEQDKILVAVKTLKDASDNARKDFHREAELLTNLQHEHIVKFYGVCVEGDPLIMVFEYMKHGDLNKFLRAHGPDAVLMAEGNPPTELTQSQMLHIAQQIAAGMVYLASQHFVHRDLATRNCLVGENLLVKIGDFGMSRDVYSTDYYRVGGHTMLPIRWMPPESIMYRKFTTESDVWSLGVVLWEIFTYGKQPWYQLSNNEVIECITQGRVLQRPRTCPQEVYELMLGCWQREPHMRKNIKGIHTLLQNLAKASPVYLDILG
Chain of MAP kinase-activated protein kinase 2 (Homo sapiens) (P49137 whole entry, looked up): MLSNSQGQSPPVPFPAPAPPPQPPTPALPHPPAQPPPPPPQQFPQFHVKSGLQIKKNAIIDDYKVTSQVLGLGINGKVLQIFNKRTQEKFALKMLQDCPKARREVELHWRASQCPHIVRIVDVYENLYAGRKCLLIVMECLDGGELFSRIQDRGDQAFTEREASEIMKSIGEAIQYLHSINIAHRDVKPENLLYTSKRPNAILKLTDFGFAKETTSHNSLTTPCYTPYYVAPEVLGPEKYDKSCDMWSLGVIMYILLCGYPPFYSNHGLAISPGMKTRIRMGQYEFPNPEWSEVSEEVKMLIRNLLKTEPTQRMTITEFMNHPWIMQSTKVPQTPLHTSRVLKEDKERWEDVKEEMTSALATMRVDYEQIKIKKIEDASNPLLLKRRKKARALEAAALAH
Chain of Proto-oncogene tyrosine-protein kinase receptor Ret (Homo sapiens) (P07949 whole entry): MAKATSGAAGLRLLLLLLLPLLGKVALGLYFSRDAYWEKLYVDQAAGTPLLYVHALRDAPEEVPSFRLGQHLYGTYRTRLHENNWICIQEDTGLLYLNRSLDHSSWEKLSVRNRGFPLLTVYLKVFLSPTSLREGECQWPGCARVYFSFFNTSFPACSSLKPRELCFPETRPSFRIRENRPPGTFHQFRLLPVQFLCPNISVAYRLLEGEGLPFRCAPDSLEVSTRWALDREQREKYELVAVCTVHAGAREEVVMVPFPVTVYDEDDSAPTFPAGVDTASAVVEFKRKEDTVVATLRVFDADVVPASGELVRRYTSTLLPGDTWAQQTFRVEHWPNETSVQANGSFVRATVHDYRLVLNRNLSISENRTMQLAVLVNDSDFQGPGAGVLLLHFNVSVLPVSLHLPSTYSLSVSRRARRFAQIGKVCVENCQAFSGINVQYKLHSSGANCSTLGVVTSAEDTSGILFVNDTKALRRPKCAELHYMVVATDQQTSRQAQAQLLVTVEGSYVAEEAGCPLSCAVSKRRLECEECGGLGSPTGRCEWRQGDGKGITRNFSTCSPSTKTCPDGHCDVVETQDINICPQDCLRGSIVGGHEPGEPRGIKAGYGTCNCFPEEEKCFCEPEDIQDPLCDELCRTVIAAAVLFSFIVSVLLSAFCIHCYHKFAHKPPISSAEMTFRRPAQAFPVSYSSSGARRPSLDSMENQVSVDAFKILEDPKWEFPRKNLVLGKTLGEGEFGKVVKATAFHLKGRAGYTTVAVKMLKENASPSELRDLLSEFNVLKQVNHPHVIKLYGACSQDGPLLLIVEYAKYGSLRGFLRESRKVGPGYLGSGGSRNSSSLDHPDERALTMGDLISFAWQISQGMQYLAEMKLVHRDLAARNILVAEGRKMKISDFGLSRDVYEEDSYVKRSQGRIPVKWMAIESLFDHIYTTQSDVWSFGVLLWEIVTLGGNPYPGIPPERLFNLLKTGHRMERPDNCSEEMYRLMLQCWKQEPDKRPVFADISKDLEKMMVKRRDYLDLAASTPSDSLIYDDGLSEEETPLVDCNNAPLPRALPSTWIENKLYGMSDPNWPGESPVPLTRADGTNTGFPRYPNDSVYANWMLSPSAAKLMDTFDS
Chain of Protein kinase C theta type (Homo sapiens) (Q04759 whole entry, looked up): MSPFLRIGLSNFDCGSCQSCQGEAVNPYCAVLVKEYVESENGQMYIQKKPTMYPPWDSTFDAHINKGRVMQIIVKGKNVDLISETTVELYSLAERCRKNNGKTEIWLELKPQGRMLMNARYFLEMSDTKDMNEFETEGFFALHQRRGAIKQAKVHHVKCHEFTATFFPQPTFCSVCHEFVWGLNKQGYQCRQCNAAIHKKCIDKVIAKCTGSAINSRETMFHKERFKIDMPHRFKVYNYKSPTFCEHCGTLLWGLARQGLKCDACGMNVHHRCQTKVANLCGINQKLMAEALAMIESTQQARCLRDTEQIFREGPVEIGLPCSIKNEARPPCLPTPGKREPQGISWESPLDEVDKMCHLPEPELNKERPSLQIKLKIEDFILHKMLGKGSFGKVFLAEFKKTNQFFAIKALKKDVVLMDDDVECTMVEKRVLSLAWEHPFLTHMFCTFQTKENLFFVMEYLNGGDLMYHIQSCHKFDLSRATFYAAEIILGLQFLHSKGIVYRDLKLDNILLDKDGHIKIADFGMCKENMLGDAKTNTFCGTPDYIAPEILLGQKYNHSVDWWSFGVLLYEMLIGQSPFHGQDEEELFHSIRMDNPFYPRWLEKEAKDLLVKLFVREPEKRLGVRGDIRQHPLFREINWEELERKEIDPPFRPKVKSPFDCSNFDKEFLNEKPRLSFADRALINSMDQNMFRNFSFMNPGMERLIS
Chain of NUAK family SNF1-like kinase 1 (Homo sapiens) (O60285 whole entry): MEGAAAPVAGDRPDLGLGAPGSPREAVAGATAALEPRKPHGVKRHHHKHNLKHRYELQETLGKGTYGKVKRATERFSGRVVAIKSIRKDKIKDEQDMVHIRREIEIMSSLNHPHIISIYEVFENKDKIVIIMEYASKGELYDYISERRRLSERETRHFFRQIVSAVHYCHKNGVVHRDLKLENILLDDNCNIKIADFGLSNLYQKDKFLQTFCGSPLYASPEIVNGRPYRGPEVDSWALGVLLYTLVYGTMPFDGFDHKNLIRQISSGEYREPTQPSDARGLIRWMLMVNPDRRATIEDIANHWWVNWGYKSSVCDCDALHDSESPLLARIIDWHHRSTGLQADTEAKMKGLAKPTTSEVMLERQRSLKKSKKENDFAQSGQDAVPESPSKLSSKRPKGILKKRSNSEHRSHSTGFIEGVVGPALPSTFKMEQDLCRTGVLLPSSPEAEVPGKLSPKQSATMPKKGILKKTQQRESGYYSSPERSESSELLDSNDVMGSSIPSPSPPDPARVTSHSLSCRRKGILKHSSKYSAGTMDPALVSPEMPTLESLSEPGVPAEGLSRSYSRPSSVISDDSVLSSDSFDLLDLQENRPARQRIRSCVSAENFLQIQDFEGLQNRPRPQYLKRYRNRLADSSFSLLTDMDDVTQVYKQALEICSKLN
Chain of Dual specificity mitogen-activated protein kinase kinase 6 (Homo sapiens) (P52564 whole entry): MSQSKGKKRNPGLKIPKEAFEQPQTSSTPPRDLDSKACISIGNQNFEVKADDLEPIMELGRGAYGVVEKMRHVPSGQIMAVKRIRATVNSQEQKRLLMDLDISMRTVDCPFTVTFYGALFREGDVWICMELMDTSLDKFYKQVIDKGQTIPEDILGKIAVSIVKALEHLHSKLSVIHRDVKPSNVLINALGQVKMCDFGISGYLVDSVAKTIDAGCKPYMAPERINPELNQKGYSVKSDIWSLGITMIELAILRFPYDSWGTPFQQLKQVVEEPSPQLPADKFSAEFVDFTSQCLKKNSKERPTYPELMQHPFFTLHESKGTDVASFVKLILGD
Chain of Interleukin-1 receptor-associated kinase 1 (Homo sapiens) (P51617 whole entry, looked up): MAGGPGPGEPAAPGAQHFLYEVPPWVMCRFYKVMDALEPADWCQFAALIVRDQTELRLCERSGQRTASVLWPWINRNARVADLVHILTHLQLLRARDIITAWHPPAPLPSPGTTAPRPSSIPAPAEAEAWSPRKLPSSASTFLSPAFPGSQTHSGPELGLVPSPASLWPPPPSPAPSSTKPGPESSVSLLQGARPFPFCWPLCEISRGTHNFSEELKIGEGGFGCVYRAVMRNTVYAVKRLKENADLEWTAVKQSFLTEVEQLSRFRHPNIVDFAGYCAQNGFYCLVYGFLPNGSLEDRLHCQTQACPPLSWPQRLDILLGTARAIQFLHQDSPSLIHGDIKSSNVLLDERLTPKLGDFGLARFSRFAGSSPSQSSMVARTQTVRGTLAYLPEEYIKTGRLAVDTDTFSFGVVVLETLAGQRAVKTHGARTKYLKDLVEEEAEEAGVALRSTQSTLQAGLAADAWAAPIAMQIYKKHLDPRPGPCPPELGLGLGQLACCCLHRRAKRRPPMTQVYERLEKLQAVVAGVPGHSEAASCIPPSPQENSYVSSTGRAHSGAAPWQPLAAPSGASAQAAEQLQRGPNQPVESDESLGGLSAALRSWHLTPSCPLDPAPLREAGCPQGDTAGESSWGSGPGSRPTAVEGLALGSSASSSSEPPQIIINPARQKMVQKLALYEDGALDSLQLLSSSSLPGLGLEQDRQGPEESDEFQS

## CCN1C(=O)C(C)(C)c2cc3[nH]c4c(c3cc21)CCCc1c(C)n[nH]c1-4
[1]
  Activity: 104%
HCT-116 [2]
  inhibition in vivo at 1 mg/kg: 52%
[3]
  Activity: 103%
[4]
  Activity: 87%
[5]
  Activity: 103%
[6]
  Activity: 10%
[7]
  Activity: 2%
HCT-116 [8]
  inhibition in vivo at 2.5 mg/kg: 82%
[9]
  Activity: 23%
Rattus norvegicus
  Activity: 70%
[10]
  Activity: 9%
[11]
  Activity: 66%
[12]
  Activity: 86%
Homo sapiens [13]
  Activity: 89%
[14]
  Activity: 104%
[15]
  Activity: 77%
[16]
  Activity: 106%
[17]
  Activity: 81%
[18]
  Activity: 79%
[19]
  Activity: 99%
[20]
  Activity: 114%
[21]
  Activity: 93%
[22]
  Activity: 109%
[23]
  Activity: 60%
[24]
  Activity: 53%
[25]
  Activity: 102%
[26]
  Activity: 96%
[27]
  Activity: 42%
[28]
  Activity: 91%
[29]
  Activity: 103%
[30]
  Activity: 103%
[31]
  Activity: 100%
[32]
  Activity: 95%
Homo sapiens [33]
  Activity: 100%
[34]
  Activity: 1%
[35]
  Activity: 29%
[36]
  Activity: 99%
[37]
  Activity: 104%
[38]
  Activity: 75%
[39]
  Activity: 5%
[40]
  Activity: 49%
